For 33 compounds, IC50 results are on record in patent US11382918B2, “Methods for treating Huntington's Disease” (PTC Therapeutics, Inc., priority 2017, dated 2022).

As usually defined, the IC50 is the concentration that inhibits the measured activity by half.

Structures can show the parent of a compound that is named as a salt. A value given as a limit tells only on which side of the number the result lay.

In the experiment the test system is Endogenous Huntingtin Protein (HTT). The experiment can be described thus: Endogenous Huntingtin Protein Assay (ELISA-based MSD electrochemiluminescence). The format is cell-based. To be noted: Table 1. A digest of the protocol: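 MSD electrochemiluminescence sandwich ELISA for endogenous HTT: sample lysates captured overnight at 4 °C on MW1 (expanded polyglutamine) or MAB2166 antibody. Detection used rabbit monoclonal #5656S, then goat anti-rabbit SULFO-TAG antibody, each 1 h at room temperature.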
Turning to `CCc1nc(C)cn2nc(-c3cc(=O)n4cc(N5CCN(CCCF)CC5)ccc4n3)cc12` [compound 665, 2-(4-ethyl-6-methylpyrazolo[1,5-a]pyrazin-2-yl)-7-[4-(3-fluoropropyl)piperazin-1-yl]-4H-pyrido[1,2-a]pyrimidin-4-one], the IC50 is 3000 to 33000 nM. Consider `Cc1nc2ccc(-c3cc(=O)n4cc(C5=CCNCC5)ccc4n3)cc2o1` [compound 302, 2-(2-methyl-1,3-benzoxazol-6-yl)-7-(1,2,3,6-tetrahydropyridin-4-yl)-4H-pyrido[1,2-a]pyrimidin-4-one], for which the half-inhibitory concentration (IC50) is 100 to 500 nM. `Cc1cn2cc(-c3cc(=O)n4cc(N5CCN(C)CC5)ccc4n3)ccc2n1` [compound 114, 2-(2-methylimidazo[1,2-a]pyridin-6-yl)-7-(4-methylpiperazin-1-yl)-4H-pyrido[1,2-a]pyrimidin-4-one] returned an IC50 of 3000 to 33000 nM. With `CN1CC=C(c2ccc3nc(-c4ccc(N(C)C)nc4)cc(=O)n3c2)CC1` [compound 450, 2-[6-(dimethylamino)pyridin-3-yl]-7-(1-methyl-1,2,3,6-tetrahydropyridin-4-yl)-4H-pyrido[1,2-a]pyrimidin-4-one] the figure was 3000 to 33000 nM; with `Cc1cc(N(C)C2CC(C)(C)NC(C)(C)C2)cn2c(=O)cc(-c3ccc4nn(C)cc4c3)nc12` [compound 853, 9-methyl-2-(2-methyl-2H-indazol-5-yl)-7-[methyl(2,2,6,6-tetramethylpiperidin-4-yl)amino]-4H-pyrido[1,2-a]pyrimidin-4-one], 3000 to 33000 nM; with `C[C@H]1CN(c2ccc3nc(-c4ccc5nn(C)cc5c4)cc(=O)n3c2)CCN1` [compound 138, 2-(2-methyl-2H-indazol-5-yl)-7-[(3S)-3-methylpiperazin-1-yl]-4H-pyrido[1,2-a]pyrimidin-4-one], 1000 to 3000 nM.

With `Cc1cc(-c2cc(=O)n3cc(C4CC(C)(C)NC(C)(C)C4)cc(C)c3n2)cc2cn(C)nc12` [compound 866, 2-(2,7-dimethyl-2H-indazol-5-yl)-9-methyl-7-(2,2,6,6-tetramethylpiperidin-4-yl)-4H-pyrido[1,2-a]pyrimidin-4-one], the half-inhibitory concentration (IC50) was 3000 to 33000 nM. In the case of `Cc1cn2nc(-c3cc(=O)n4cc(C5CCN(C)CC5)ncc4n3)cc2c(C)n1` [compound 503, 2-(4,6-dimethylpyrazolo[1,5-a]pyrazin-2-yl)-7-(1-methylpiperidin-4-yl)-4H-pyrazino[1,2-a]pyrimidin-4-one], the IC50 was in the range of 1000 to 3000 nM. Compound `Cc1cn2cc(-c3cc(=O)n4cc(C5=CCNCC5)ncc4n3)cc2c(C)n1` [compound 413, 2-(1,3-dimethylpyrrolo[1,2-a]pyrazin-7-yl)-7-(1,2,3,6-tetrahydropyridin-4-yl)-4H-pyrazino[1,2-a]pyrimidin-4-one hydrochloride (1:2)] returned an IC50 below 100 nM.

`CN1CCC(c2ccc3nc(-c4ccc(N(C)C)nc4)cc(=O)n3c2)CC1` [compound 841, 2-[6-(dimethylamino)pyridin-3-yl]-7-(1-methylpiperidin-4-yl)-4H-pyrido[1,2-a]pyrimidin-4-one] had an IC50 of 3000 to 33000 nM. `Cc1cn2nc(-c3cc(=O)n4cc(C5=CCN(C6CCC6)CC5)ccc4n3)cc2c(C)n1` [compound 356, 7-(1-cyclobutyl-1,2,3,6-tetrahydropyridin-4-yl)-2-(4,6-dimethylpyrazolo[1,5-a]pyrazin-2-yl)-4H-pyrido[1,2-a]pyrimidin-4-one] returned an IC50 of 3000 to 33000 nM. With `Cc1cn2cc(-c3cc(=O)n4cc(N5CCN(C)CC5)ccc4n3)cc(F)c2n1` [compound 269, 2-(8-fluoro-2-methylimidazo[1,2-a]pyridin-6-yl)-7-(4-methylpiperazin-1-yl)-4H-pyrido[1,2-a]pyrimidin-4-one] the figure was 500 to 1000 nM; with `Cn1cc2cc(-c3cc(=O)n4cc(C5CCNCC5)ccc4n3)ccc2n1` [compound 606, 2-(2-methyl-2H-indazol-5-yl)-7-(piperidin-4-yl)-4H-pyrido[1,2-a]pyrimidin-4-one], 3000 to 33000 nM; with `CCc1cc(-c2cc(=O)n3cc(N4CCNCC4)ccc3n2)cn2cc(C)nc12` [compound 637, 2-(8-ethyl-2-methylimidazo[1,2-a]pyridin-6-yl)-7-(piperazin-1-yl)-4H-pyrido[1,2-a]pyrimidin-4-one], 500 to 1000 nM. As to `Cc1cn2cc(-c3cc(=O)n4cc(C5CCNCC5)ccc4n3)cc(Cl)c2n1` [compound 516, 2-(8-chloro-2-methylimidazo[1,2-a]pyridin-6-yl)-7-(piperidin-4-yl)-4H-pyrido[1,2-a]pyrimidin-4-one], the 50% inhibitory concentration (IC50) is below 100 nM.

`CCN1CCN(c2ccc3nc(-c4cc(F)c5nc(C)oc5c4)cc(=O)n3c2)CC1` [compound 309, 7-(4-ethylpiperazin-1-yl)-2-(4-fluoro-2-methyl-1,3-benzoxazol-6-yl)-4H-pyrido[1,2-a]pyrimidin-4-one] showed a 50% inhibitory concentration (IC50) of 1000 to 3000 nM. Turning to `Cc1nc2cc(-c3cc(=O)n4cc(N5CCNCC5)ccc4n3)ccc2s1` [compound 136, 2-(2-methyl-1,3-benzothiazol-5-yl)-7-(piperazin-1-yl)-4H-pyrido[1,2-a]pyrimidin-4-one], the IC50 was 3000 to 33000 nM.

`Cc1cn2cc(-c3cc(=O)n4cc(C5CCNCC5)nc(C)c4n3)cc(F)c2n1` [compound 875, 2-(8-fluoro-2-methylimidazo[1,2-a]pyridin-6-yl)-9-methyl-7-(piperidin-4-yl)-4H-pyrazino[1,2-a]pyrimidin-4-one hydrochloride (1:2)] showed a concentration for half-maximal inhibition (IC50) below 100 nM.

Compound `CCN1CCC(c2ccc3nc(-c4ccc5nn(C)cc5c4)cc(=O)n3c2)CC1` [compound 612, 7-(1-ethylpiperidin-4-yl)-2-(2-methyl-2H-indazol-5-yl)-4H-pyrido[1,2-a]pyrimidin-4-one] had an IC50 of 1000 to 3000 nM.

For the compound `Cc1cn2nc(-c3cc(=O)n4cc(C5CCN(C6CC6)CC5)ccc4n3)cc2c(C)n1` [compound 641, 7-(1-cyclopropylpiperidin-4-yl)-2-(4,6-dimethylpyrazolo[1,5-a]pyrazin-2-yl)-4H-pyrido[1,2-a]pyrimidin-4-one], the concentration for half-maximal inhibition (IC50) was 3000 to 33000 nM.

`Cc1nc(O)c2cc(-c3cc(=O)n4cc(N5CCNCC5)ccc4n3)ccc2n1` [compound 840, 2-(4-hydroxy-2-methylquinazolin-6-yl)-7-(piperazin-1-yl)-4H-pyrido[1,2-a]pyrimidin-4-one] came in with an IC50 of 3000 to 33000 nM. Then `CCc1nc(C)cn2nc(-c3cc(=O)n4cc(C5CCNCC5)ncc4n3)cc12` [compound 653, 2-(4-ethyl-6-methylpyrazolo[1,5-a]pyrazin-2-yl)-7-(piperidin-4-yl)-4H-pyrazino[1,2-a]pyrimidin-4-one], with below 100 nM; and `CCN1CC=C(c2cc(C)c3nc(-c4cc5c(C)nc(C)cn5n4)cc(=O)n3c2)CC1` [compound 482, 2-(4,6-dimethylpyrazolo[1,5-a]pyrazin-2-yl)-7-(1-ethyl-1,2,3,6-tetrahydropyridin-4-yl)-9-methyl-4H-pyrido[1,2-a]pyrimidin-4-one], with 3000 to 33000 nM; and `Cc1cc(C2CCN(CCO)CC2)cn2c(=O)cc(-c3ccc4nn(C)cc4c3)nc12` [compound 711, 7-[1-(2-hydroxyethyl)piperidin-4-yl]-9-methyl-2-(2-methyl-2H-indazol-5-yl)-4H-pyrido[1,2-a]pyrimidin-4-one], with 100 to 500 nM. Regarding `Cc1nc(-c2cc(=O)n3cc(C4=CCNCC4)ccc3n2)cc2cn(C)nc12` [compound 862, 2-(2,7-dimethyl-2H-pyrazolo[3,4-c]pyridin-5-yl)-7-(1,2,3,6-tetrahydropyridin-4-yl)-4H-pyrido[1,2-a]pyrimidin-4-one hydrochloride (1:2)], the IC50 lay in the range of 1000 to 3000 nM.

`Cc1cn2nc(-c3cc(=O)n4cc(N5CCN(C)[C@@H](C)C5)ccc4n3)cc2c(C)n1` [compound 258, 7-[(3S)-3,4-dimethylpiperazin-1-yl]-2-(4,6-dimethylpyrazolo[1,5-a]pyrazin-2-yl)-4H-pyrido[1,2-a]pyrimidin-4-one] registered a half-maximal inhibitory concentration (IC50) of 3000 to 33000 nM. The compound `Cc1csc(-c2cc(=O)n3cc(N4CCN[C@@H](C)C4)ccc3n2)n1` [compound 162, 7-[(3S)-3-methylpiperazin-1-yl]-2-(4-methyl-1,3-thiazol-2-yl)-4H-pyrido[1,2-a]pyrimidin-4-one] showed an IC50 of 3000 to 33000 nM. Regarding `Cc1cc(-c2cc(=O)n3cc(N4CCN[C@H](C)C4)ccc3n2)cc2cn(C)nc12` [compound 741, 2-(2,7-dimethyl-2H-indazol-5-yl)-7-[(3R)-3-methylpiperazin-1-yl]-4H-pyrido[1,2-a]pyrimidin-4-one], the IC50 lay within 500 to 1000 nM. Then `CCN1CCC(c2cn3c(=O)cc(-c4ccc5nc(C)cn5n4)nc3c(C)n2)CC1` [compound 873, 7-(1-ethylpiperidin-4-yl)-9-methyl-2-(2-methylimidazo[1,2-b]pyridazin-6-yl)-4H-pyrazino[1,2-a]pyrimidin-4-one], with 100 to 500 nM; and `CCc1cc(-c2cc(=O)n3cc(N4CCN[C@@H](C)C4)ccc3n2)cn2cc(C)nc12` [compound 639, 2-(8-ethyl-2-methylimidazo[1,2-a]pyridin-6-yl)-7-[(3S)-3-methylpiperazin-1-yl]-4H-pyrido[1,2-a]pyrimidin-4-one], with 3000 to 33000 nM. Turning to `CCCc1nc(C)cn2nc(-c3cc(=O)n4cc(N5CCN[C@H](C)C5)ccc4n3)cc12` [compound 727, 7-[(3R)-3-methylpiperazin-1-yl]-2-(6-methyl-4-propylpyrazolo[1,5-a]pyrazin-2-yl)-4H-pyrido[1,2-a]pyrimidin-4-one], the IC50 was in the range of 3000 to 33000 nM. As to `CN1CC=C(c2ccc3nc(-c4ccc5nn(C)cc5c4)cc(=O)n3c2)CC1` [compound 476, 2-(2-methyl-2H-indazol-5-yl)-7-(1-methyl-1,2,3,6-tetrahydropyridin-4-yl)-4H-pyrido[1,2-a]pyrimidin-4-one], the half-inhibitory concentration (IC50) lay within 3000 to 33000 nM. Regarding `Cc1cn2cc(-c3cc(=O)n4cc(C5CCN(CCO)CC5)ncc4n3)cc(Cl)c2n1` [compound 599, 2-(8-chloro-2-methylimidazo[1,2-a]pyridin-6-yl)-7-[1-(2-hydroxyethyl)piperidin-4-yl]-4H-pyrazino[1,2-a]pyrimidin-4-one], the IC50 was in the range of 1000 to 3000 nM.
